Measured values: ChEMBL document CHEMBL5113485, “Distal kinetic deuterium isotope effect: Phenyl ring deuteration attenuates N-demethylation of Lu AF35700” (Bioorg Med Chem Lett, 2022)

Experiments:
[1] = biological target: Alpha-1B adrenergic receptor (Homo sapiens, UniProt P35368); assay: Displacement of [3H]prazosin from recombinant human alpha1B receptor measured after 60 mins by scintillation counting analysis
Histamine H1 receptor = Histamine H1 receptor (Homo sapiens, UniProt P35367); assay: Displacement of [3H]pyrilamine from recombinant human H1 receptor measured after 60 mins by scintillation counting analysis
[2] = biological target: Alpha-1A adrenergic receptor (Homo sapiens, UniProt P35348); assay: Displacement of [3H]prazosin from recombinant human alpha1A receptor measured after 60 mins by scintillation counting analysis
D(3) dopamine receptor = D(3) dopamine receptor (Homo sapiens, UniProt P35462); assay: Displacement of [3H]methyl-spiperone from recombinant human D3 receptor measured after 60 mins by scintillation counting analysis
[3] = Drug metabolism in human liver microsomes assessed as formation of d5-desmethyl-zicronapine at 10 uM measured after 15 to 180 mins in presence of NADPH regenerating system by LC-MS/MS analysis; format: ADME, Microsome; details: time 15-180 min
[4] = Drug metabolism in human liver microsomes assessed as formation of desmethyl-zicronapine at 10 uM measured after 15 to 180 mins in presence of NADPH regenerating system by LC-MS/MS analysis; format: ADME, Microsome; details: time 15-180 min
[5] = biological target: Alpha-2B adrenergic receptor (Homo sapiens, UniProt P18089); assay: Displacement of [3H]RX 821002 from recombinant human alpha2B receptor measured after 60 mins by scintillation counting analysis
Cytochrome P450 2C19 [6] = biological target: T1, Cytochrome P450 2C19 (Homo sapiens, UniProt P33261); assay: Drug metabolism assessed as recombinant human liver CYP2C19-mediated formation of d5-desmethyl-zicronapine at 10 uM measured after 15 to 180 mins in presence of zicronapine by LC-MS/MS analysis; format: ADME; details: recombinant enzyme, time 15-180 min
T1 sequence (P33261 whole entry): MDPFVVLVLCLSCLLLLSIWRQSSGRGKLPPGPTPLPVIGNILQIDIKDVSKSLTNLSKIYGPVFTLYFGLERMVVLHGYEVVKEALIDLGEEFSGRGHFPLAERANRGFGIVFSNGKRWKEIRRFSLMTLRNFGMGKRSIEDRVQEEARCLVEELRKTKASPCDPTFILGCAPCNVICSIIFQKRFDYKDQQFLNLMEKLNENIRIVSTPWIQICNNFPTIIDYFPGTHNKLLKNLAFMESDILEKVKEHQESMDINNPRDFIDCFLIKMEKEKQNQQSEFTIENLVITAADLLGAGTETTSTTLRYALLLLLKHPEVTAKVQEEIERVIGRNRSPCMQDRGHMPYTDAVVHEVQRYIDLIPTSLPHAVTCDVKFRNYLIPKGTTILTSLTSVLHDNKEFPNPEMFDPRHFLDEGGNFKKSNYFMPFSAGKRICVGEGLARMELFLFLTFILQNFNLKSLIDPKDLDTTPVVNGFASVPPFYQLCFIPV

[7] = biological target: Alpha-2A adrenergic receptor (Homo sapiens, UniProt P08913); assay: Displacement of [3H]RX 821002 from recombinant human alpha2A receptor measured after 60 mins by scintillation counting analysis
D(4) dopamine receptor = D(4) dopamine receptor (Homo sapiens, UniProt P21917); assay: Displacement of [3H]methyl-spiperone from recombinant human D4.4 receptor measured after 60 mins by scintillation counting analysis
D(4) dopamine receptor, sequence (P21917 whole entry): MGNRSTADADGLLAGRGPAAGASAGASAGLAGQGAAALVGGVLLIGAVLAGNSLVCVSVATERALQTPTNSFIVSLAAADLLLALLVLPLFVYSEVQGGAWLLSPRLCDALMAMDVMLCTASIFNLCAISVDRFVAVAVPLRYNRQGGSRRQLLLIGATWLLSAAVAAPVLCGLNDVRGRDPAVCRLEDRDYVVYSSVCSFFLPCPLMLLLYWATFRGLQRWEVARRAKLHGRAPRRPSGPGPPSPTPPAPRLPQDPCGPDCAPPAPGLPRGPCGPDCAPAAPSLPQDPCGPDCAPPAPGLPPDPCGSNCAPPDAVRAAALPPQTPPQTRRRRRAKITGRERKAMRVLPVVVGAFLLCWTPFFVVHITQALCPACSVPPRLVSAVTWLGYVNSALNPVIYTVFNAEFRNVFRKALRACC

[8] = biological target: 5-hydroxytryptamine receptor 2B (Homo sapiens, UniProt P41595); assay: Displacement of [125I](+/-)DOI from recombinant human 5-HT2B receptor measured after 60 mins by scintillation counting analysis
[9] = biological target: Sodium-dependent dopamine transporter (Homo sapiens, UniProt Q01959); assay: Displacement of [3H]BTCP from recombinant human DAT measured after 120 mins by scintillation counting analysis
Sodium-dependent dopamine transporter, sequence (Q01959 whole entry): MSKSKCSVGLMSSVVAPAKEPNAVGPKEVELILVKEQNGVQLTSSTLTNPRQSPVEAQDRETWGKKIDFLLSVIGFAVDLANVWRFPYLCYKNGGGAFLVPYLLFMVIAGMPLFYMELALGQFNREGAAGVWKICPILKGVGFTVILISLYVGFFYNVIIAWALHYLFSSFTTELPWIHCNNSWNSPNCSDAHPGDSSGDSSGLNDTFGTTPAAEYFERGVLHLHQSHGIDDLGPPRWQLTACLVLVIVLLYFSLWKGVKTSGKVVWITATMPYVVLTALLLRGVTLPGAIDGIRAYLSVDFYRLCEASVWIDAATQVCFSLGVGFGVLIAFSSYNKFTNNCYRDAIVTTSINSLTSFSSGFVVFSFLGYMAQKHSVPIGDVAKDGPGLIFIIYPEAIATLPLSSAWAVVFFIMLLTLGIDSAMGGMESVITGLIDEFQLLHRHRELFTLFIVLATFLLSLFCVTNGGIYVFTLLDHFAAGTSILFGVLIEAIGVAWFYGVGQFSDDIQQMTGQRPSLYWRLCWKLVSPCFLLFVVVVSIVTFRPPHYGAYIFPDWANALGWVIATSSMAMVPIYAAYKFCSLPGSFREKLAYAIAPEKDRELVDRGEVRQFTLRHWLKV

D(1B) dopamine receptor = D(1B) dopamine receptor (Homo sapiens, UniProt P21918); assay: Displacement of [3H]SCH 23390 from recombinant human D5 receptor measured after 60 mins by scintillation counting analysis
D(1B) dopamine receptor, sequence (P21918 whole entry): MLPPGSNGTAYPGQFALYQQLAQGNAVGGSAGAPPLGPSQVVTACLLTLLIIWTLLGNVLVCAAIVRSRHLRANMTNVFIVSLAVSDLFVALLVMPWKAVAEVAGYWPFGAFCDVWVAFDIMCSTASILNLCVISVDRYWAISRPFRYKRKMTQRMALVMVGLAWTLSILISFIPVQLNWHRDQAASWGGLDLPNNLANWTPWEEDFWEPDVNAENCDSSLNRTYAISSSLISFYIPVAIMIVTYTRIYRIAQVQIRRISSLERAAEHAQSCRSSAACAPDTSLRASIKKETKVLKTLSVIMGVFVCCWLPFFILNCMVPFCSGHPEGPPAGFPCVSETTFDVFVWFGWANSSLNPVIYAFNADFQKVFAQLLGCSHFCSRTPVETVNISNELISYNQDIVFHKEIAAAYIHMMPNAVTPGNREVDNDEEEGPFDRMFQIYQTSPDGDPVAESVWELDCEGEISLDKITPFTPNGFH

[10] = biological target: 5-hydroxytryptamine receptor 7 (Homo sapiens, UniProt P34969); assay: Displacement of [3H]LSD from recombinant human 5-HT7 receptor measured after 120 mins by scintillation counting analysis
5-hydroxytryptamine receptor 7, sequence (P34969 whole entry): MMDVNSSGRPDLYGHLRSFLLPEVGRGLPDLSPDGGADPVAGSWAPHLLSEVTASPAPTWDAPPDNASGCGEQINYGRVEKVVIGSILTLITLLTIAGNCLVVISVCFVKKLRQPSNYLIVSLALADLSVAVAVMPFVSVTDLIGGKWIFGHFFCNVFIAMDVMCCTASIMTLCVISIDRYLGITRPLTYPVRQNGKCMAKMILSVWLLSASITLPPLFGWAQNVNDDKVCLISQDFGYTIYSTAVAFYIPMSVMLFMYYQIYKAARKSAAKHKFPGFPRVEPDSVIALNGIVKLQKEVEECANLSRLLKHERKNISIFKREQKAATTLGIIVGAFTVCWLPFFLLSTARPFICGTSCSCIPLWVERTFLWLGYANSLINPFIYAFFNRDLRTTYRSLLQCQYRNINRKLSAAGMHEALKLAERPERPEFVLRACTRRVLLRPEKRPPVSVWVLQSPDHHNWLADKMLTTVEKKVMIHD

[11] = biological target: Alpha-2C adrenergic receptor (Homo sapiens, UniProt P18825); assay: Displacement of [3H]RX 821002 from recombinant human alpha2C receptor measured after 60 mins by scintillation counting analysis
[12] = biological target: 5-hydroxytryptamine receptor 2C (Homo sapiens, UniProt P28335); assay: Displacement of [125I](+/-)DOI from recombinant human 5-HT2C receptor measured after 60 mins by scintillation counting analysis
5-hydroxytryptamine receptor 2C, sequence (P28335 whole entry): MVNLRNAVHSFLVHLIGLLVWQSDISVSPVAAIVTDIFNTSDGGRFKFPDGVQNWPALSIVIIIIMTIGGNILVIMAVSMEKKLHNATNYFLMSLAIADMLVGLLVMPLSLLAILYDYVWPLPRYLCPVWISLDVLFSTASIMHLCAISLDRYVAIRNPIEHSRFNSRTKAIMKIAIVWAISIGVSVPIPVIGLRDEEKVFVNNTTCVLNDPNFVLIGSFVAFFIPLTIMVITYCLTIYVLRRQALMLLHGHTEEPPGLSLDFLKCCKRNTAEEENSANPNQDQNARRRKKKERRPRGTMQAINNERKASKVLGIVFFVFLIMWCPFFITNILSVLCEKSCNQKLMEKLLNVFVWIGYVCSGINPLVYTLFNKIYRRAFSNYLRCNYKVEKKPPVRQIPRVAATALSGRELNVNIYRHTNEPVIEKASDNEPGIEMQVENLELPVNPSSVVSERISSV

[13] = biological target: 5-hydroxytryptamine receptor 1B (Rattus norvegicus, UniProt P28564); assay: Displacement of [125I]CYP from rat brain 5HT1B receptor measured after 120 mins by scintillation counting analysis
[14] = biological target: 5-hydroxytryptamine receptor 1A (Homo sapiens, UniProt P08908); assay: Displacement of [3H]8-OH-DPAT from recombinant human 5-HT1A receptor measured after 60 mins by scintillation counting analysis
5-hydroxytryptamine receptor 1A, sequence (P08908 whole entry): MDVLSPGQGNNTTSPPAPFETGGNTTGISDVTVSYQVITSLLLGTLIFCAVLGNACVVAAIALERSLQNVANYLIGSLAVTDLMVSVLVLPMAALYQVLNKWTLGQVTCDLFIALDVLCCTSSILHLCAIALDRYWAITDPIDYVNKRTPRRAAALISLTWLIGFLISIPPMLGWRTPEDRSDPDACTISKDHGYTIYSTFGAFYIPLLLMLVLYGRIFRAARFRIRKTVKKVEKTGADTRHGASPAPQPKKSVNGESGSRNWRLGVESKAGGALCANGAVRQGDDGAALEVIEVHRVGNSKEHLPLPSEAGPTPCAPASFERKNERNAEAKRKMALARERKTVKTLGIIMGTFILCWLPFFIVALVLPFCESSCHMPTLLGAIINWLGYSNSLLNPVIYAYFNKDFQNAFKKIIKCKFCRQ

[15] = biological target: Alpha-1D adrenergic receptor (Homo sapiens, UniProt P25100); assay: Displacement of [3H]prazosin from recombinant human alpha1D receptor measured after 60 mins by scintillation counting analysis
Alpha-1D adrenergic receptor, sequence (P25100 whole entry): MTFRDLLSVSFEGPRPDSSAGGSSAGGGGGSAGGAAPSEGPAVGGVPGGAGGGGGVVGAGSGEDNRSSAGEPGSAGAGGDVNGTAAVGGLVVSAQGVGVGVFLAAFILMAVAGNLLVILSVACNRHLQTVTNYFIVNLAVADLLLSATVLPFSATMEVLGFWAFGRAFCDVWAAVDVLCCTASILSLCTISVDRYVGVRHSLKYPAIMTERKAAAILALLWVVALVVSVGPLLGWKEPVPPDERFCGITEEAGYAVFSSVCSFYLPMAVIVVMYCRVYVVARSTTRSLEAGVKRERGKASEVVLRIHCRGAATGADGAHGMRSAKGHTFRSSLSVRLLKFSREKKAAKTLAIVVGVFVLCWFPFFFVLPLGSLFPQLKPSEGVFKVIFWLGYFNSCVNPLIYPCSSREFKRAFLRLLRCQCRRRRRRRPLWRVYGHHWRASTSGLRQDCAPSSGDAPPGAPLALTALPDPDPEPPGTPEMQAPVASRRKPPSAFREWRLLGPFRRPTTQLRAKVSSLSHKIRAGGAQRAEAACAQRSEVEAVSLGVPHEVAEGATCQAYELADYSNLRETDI

Cytochrome P450 3A4 [16] = biological target: T2, Cytochrome P450 3A4 (Homo sapiens, UniProt P08684); assay: Drug metabolism assessed as recombinant human liver CYP3A4-mediated formation of d5-desmethyl-zicronapine at 10 uM measured after 15 to 180 mins in presence of zicronapine by LC-MS/MS analysis; format: ADME; details: recombinant enzyme, time 15-180 min
T2 sequence (P08684 whole entry): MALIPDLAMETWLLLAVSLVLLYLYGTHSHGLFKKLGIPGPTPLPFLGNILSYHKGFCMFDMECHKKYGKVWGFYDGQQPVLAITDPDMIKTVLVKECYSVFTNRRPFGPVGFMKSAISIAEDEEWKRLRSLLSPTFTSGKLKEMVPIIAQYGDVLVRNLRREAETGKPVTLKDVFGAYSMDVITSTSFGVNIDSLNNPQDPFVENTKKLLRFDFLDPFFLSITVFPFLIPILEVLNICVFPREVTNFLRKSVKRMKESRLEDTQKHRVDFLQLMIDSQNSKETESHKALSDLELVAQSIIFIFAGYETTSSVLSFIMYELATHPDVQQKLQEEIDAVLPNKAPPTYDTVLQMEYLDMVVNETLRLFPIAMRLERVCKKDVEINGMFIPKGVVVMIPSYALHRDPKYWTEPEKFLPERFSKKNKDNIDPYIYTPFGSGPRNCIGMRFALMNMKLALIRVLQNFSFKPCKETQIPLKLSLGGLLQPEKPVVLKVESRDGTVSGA

D(1A) dopamine receptor = D(1A) dopamine receptor (Homo sapiens, UniProt P21728); assay: Displacement of [3H]SCH 23390 from recombinant human D1 receptor measured after 60 mins by scintillation counting analysis
[17] = biological target: 5-hydroxytryptamine receptor 6 (Homo sapiens, UniProt P50406); assay: Displacement of [3H]LSD from recombinant human 5-HT6 receptor measured after 120 mins by scintillation counting analysis
D(2) dopamine receptor = D(2) dopamine receptor (Homo sapiens, UniProt P14416); assay: Displacement of [3H]7-OH-DPAT from recombinant human D2S receptor measured after 60 mins by scintillation counting analysis
[18] = biological target: 5-hydroxytryptamine receptor 2A (Homo sapiens, UniProt P28223); assay: Displacement of [125I](+/-)DOI from recombinant human 5-HT2A receptor measured after 60 mins by scintillation counting analysis
Cytochrome P450 3A4 [19] = biological target: T2, Cytochrome P450 3A4; assay: Drug metabolism assessed as recombinant human liver CYP3A4-mediated formation of d5-desmethyl-zicronapine at 10 uM measured after 15 to 180 mins in presence of Lu AF35700 by LC-MS/MS analysis; format: ADME; details: recombinant enzyme, time 15-180 min
Cytochrome P450 2C19 [20] = biological target: T1, Cytochrome P450 2C19; assay: Drug metabolism assessed as recombinant human liver CYP2C19-mediated formation of desmethyl-zicronapine at 10 uM measured after 15 to 180 mins in presence of d5-zicronapine by LC-MS/MS analysis; format: ADME; details: recombinant enzyme, time 15-180 min
Cytochrome P450 2C19 [21] = biological target: T1, Cytochrome P450 2C19; assay: Drug metabolism assessed as recombinant human liver CYP2C19-mediated formation of d5-desmethyl-zicronapine at 10 uM measured after 15 to 180 mins in presence of Lu AF35700 by LC-MS/MS analysis; format: ADME; details: recombinant enzyme, time 15-180 min
Cytochrome P450 2C19 [22] = biological target: T1, Cytochrome P450 2C19; assay: Drug metabolism assessed as recombinant human liver CYP2C19-mediated formation of desmethyl-zicronapine at 10 uM measured after 15 to 180 mins in presence of Lu AF35700 by LC-MS/MS analysis; format: ADME; details: recombinant enzyme, time 15-180 min
Cytochrome P450 3A4 [23] = biological target: T2, Cytochrome P450 3A4; assay: Drug metabolism assessed as recombinant human liver CYP3A4-mediated formation of desmethyl-zicronapine at 10 uM measured after 15 to 180 mins in presence of d5-zicronapine by LC-MS/MS analysis; format: ADME; details: recombinant enzyme, time 15-180 min
Cytochrome P450 3A4 [24] = biological target: T2, Cytochrome P450 3A4; assay: Drug metabolism assessed as recombinant human liver CYP3A4-mediated formation of desmethyl-zicronapine at 10 uM measured after 15 to 180 mins in presence of Lu AF35700 by LC-MS/MS analysis; format: ADME; details: recombinant enzyme, time 15-180 min

Alpha-1B adrenergic receptor, sequence (P35368 whole entry): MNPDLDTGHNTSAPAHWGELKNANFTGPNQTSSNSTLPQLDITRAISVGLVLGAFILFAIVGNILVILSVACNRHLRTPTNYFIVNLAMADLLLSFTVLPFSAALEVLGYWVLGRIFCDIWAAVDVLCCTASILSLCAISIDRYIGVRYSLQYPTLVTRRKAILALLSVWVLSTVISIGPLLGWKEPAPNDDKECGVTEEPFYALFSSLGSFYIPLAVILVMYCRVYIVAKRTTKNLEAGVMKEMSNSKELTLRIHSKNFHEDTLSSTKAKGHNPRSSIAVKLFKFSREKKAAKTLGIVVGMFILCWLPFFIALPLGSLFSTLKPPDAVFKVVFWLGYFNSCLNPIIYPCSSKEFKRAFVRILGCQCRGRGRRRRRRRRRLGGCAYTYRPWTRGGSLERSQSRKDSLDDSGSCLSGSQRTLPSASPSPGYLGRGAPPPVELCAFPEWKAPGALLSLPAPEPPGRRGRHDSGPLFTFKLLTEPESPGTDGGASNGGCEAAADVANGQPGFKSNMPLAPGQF

SMILES | Ki [1] | Ki (Histamine H1 receptor) | Ki [2] | Ki (D(3) dopamine receptor) | Drug metabolism [3] | Drug metabolism [4] | Ki [5] | Drug metabolism (Cytochrome P450 2C19 [6]) | Ki [7] | Ki (D(4) dopamine receptor) | Ki [8] | Ki [9] | Ki (D(1B) dopamine receptor) | Ki [10] | Ki [11] | Ki [12] | Ki [13] | Ki [14] | Ki [15] | Drug metabolism (Cytochrome P450 3A4 [16]) | other results
[2H]c1c([2H])c([2H])c([C@@H]2C[C@@H](N3CCN(C([2H])([2H])[2H])C(C)(C)C3)c3cc(Cl)ccc32)c([2H])c1[2H] | 2.9 nM | 4 nM | 3.4 nM | 16 nM | Metabolite_Detected | Metabolite_Detected | 47 nM | Metabolite_Detected | 560 nM | 6.8 nM | 0.4 nM | 4200 nM | 0.37 nM | 3.8 nM | 9.7 nM | 1.5 nM | 170 nM | 89 nM | 9.5 nM | Metabolite_Detected | –
[2H]c1c([2H])c([2H])c([C@@H]2C[C@@H](N3CCN(C)C(C)(C)C3)c3cc(Cl)ccc32)c([2H])c1[2H] | – | – | – | – | Metabolite_Detected | Metabolite_Detected | – | Metabolite_Detected | – | – | – | – | – | – | – | – | – | – | – | Metabolite_Detected | –
[2H]c1c([2H])c([2H])c([C@@H]2C[C@@H](N3CCNC(C)(C)C3)c3cc(Cl)ccc32)c([2H])c1[2H] | 11 nM | 6.6 nM | 13 nM | 59 nM | – | – | 490 nM | – | 2500 nM | 11 nM | 0.39 nM | 510 nM | 0.67 nM | 11 nM | 160 nM | 1.1 nM | 660 nM | 420 nM | 35 nM | – | Ki (D(1A) dopamine receptor): 1 nM; Ki [17]: 0.73 nM; Ki (D(2) dopamine receptor): 11 nM; Ki [18]: 0.84 nM
CN1CCN([C@@H]2C[C@@H](c3ccccc3)c3ccc(Cl)cc32)CC1(C)C [ZICRONAPINE] | – | – | – | – | – | – | – | – | – | – | – | – | – | – | – | – | – | – | – | – | Drug metabolism (Cytochrome P450 3A4 [19]): Metabolite_Detected; Drug metabolism (Cytochrome P450 2C19 [20]): Metabolite_Detected; Drug metabolism (Cytochrome P450 2C19 [21]): Metabolite_Detected; Drug metabolism (Cytochrome P450 2C19 [22]): Metabolite_Detected; Drug metabolism (Cytochrome P450 3A4 [23]): Metabolite_Detected; Drug metabolism (Cytochrome P450 3A4 [24]): Metabolite_Detected
